Assay results from PMC2733882, “Structure of Hordeum vulgare NADPH-dependent thioredoxin reductase 2. Unwinding the reaction mechanism” (Acta Crystallographica Section D: Biological Crystallography, 2009).

Columns and labels:
HvNTR2 [1] = target: T1, HvNTR2 (Hordeum vulgare, UniProt A9LN30); experiment: X-ray crystal structure, […] A; assay type: binding; details: crystals pH 3.5, 0.1 M citrate; one FAD per subunit in FAD domain, tightly bound
T1 construct: gene NTR2; recombinant, E. coli Rosetta (DE3); FAD domain 1-126 and 255-331, NADPH domain 127-254; model residues 6-323 (A), 5-323 (B); homodimer
T1 sequence (A9LN30 1-331): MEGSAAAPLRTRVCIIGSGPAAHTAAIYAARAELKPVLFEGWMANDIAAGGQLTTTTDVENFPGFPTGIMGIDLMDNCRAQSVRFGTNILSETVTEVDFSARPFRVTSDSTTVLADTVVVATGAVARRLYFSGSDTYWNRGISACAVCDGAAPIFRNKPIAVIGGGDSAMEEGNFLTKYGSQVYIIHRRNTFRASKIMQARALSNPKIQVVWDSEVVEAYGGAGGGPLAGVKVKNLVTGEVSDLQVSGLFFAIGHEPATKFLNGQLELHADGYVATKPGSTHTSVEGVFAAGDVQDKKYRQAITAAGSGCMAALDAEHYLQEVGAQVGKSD

HvNTR2 [2] = target: T1, HvNTR2; experiment: bleaching of yellow HvNTR2 crystals (FAD reduction); assay type: biochemical; details: 10 mM NADPH, 30 min, in crystals; NADPH not seen in the structure

SMILES	X-ray crystal structure, 2.6 A (HvNTR2 [1])	bleaching of yellow HvNTR2 crystals (FAD reduction) (HvNTR2 [2])
Cc1cc2nc3c(=O)[nH]c(=O)nc-3n(C[C@H](O)[C@H](O)[C@H](O)COP(=O)(O)OP(=O)(O)OC[C@H]3O[C@@H](n4cnc5c(N)ncnc54)[C@H](O)[C@@H]3O)c2cc1C [FAD]	One FAD molecule with well defined electron density	–
NC(=O)C1=CN([C@@H]2O[C@H](COP(=O)(O)OP(=O)(O)OC[C@H]3O[C@@H](n4cnc5c(N)ncnc54)[C@H](OP(=O)(O)O)[C@@H]3O)[C@@H](O)[C@H]2O)C=CC1 [NADPH]	–	FAD can still be reduced by NADPH as judged from the bleaching
